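How tested: cells in 96-well plates exposed to compound for 48 hours at five concentrations. GI50 marks 50% less growth. TGI: concentration producing complete growth inhibition.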
Experiments:
Test in all cases: NCI tumour cell line growth inhibition, 48 h
786-0 renal = tested on: 786-0 renal
A498 renal = tested on: A498 renal
A549 NSCLC = tested on: A549 NSCLC
ACHN renal = tested on: ACHN renal
BT-549 breast = tested on: BT-549 breast
CAKI-1 renal = tested on: CAKI-1 renal
CCRF-CEM leukemia = tested on: CCRF-CEM leukemia
COLO 205 colon = tested on: COLO 205 colon
DU-145 prostate = tested on: DU-145 prostate
EKVX NSCLC = tested on: EKVX NSCLC
HCC-2998 colon = tested on: HCC-2998 colon
HCT-116 colon = tested on: HCT-116 colon
HCT-15 colon = tested on: HCT-15 colon
HL-60(TB) leukemia = tested on: HL-60(TB) leukemia
HOP-62 NSCLC = tested on: HOP-62 NSCLC
HOP-92 NSCLC = tested on: HOP-92 NSCLC
HS 578T breast = tested on: HS 578T breast
HT29 colon = tested on: HT29 colon
IGROV1 ovarian = tested on: IGROV1 ovarian
K-562 leukemia = tested on: K-562 leukemia
KM12 colon = tested on: KM12 colon
LOX IMVI melanoma = tested on: LOX IMVI melanoma
M14 melanoma = tested on: M14 melanoma
MCF7 breast = tested on: MCF7 breast
MDA-MB-231 breast = tested on: MDA-MB-231 breast
MDA-MB-435 = tested on: MDA-MB-435
MOLT-4 leukemia = tested on: MOLT-4 leukemia
NCI-H226 lung = tested on: NCI-H226 lung
NCI-H23 lung = tested on: NCI-H23 lung
NCI-H460 lung = tested on: NCI-H460 lung
NCI-H522 lung = tested on: NCI-H522 lung
NCI/ADR-RES ovarian = tested on: NCI/ADR-RES ovarian
OVCAR-3 ovarian = tested on: OVCAR-3 ovarian
OVCAR-4 ovarian = tested on: OVCAR-4 ovarian
OVCAR-5 ovarian = tested on: OVCAR-5 ovarian
PC-3 prostate = tested on: PC-3 prostate
RPMI-8226 leukemia = tested on: RPMI-8226 leukemia
RXF 393 renal = tested on: RXF 393 renal
SF-268 CNS = tested on: SF-268 CNS
SF-295 CNS = tested on: SF-295 CNS
SF-539 CNS = tested on: SF-539 CNS
SK-MEL-2 melanoma = tested on: SK-MEL-2 melanoma
SK-MEL-28 melanoma = tested on: SK-MEL-28 melanoma
SK-MEL-5 melanoma = tested on: SK-MEL-5 melanoma
SK-OV-3 ovarian = tested on: SK-OV-3 ovarian
SN12C renal = tested on: SN12C renal
SNB-19 CNS = tested on: SNB-19 CNS
SNB-75 CNS = tested on: SNB-75 CNS
SR leukemia = tested on: SR leukemia
SW-620 colon = tested on: SW-620 colon
T-47D breast = tested on: T-47D breast
TK-10 renal = tested on: TK-10 renal
U251 CNS = tested on: U251 CNS
UACC-257 melanoma = tested on: UACC-257 melanoma
UACC-62 melanoma = tested on: UACC-62 melanoma
UO-31 renal = tested on: UO-31 renal
MALME-3M melanoma = tested on: MALME-3M melanoma
OVCAR-8 ovarian = tested on: OVCAR-8 ovarian

## CN(C)CCOc1nc2c3cccnc3cc(-c3cccc(Cl)c3)c2c2ncccc12
786-0 renal
  GI50: 1450 nM
  TGI: 2840 nM
A498 renal
  GI50: 2600 nM
  TGI: 10800 nM
A549 NSCLC
  GI50: 1390 nM
  TGI: 2980 nM
ACHN renal
  GI50: 698 nM
  TGI: 2450 nM
BT-549 breast
  GI50: 6110 nM
  TGI: 19900 nM
CAKI-1 renal
  GI50: 1100 nM
  TGI: 2920 nM
CCRF-CEM leukemia
  GI50: 1260 nM
  TGI: 6730 nM
COLO 205 colon
  GI50: 1230 nM
  TGI: 2740 nM
DU-145 prostate
  GI50: 1840 nM
  TGI: 4260 nM
EKVX NSCLC
  GI50: 1700 nM
  TGI: 4620 nM
HCC-2998 colon
  GI50: 1430 nM
  TGI: 2930 nM
HCT-116 colon
  GI50: 1060 nM
  TGI: 2320 nM
HCT-15 colon
  GI50: 1050 nM
  TGI: 2700 nM
HL-60(TB) leukemia
  GI50: 2080 nM
  TGI: 4500 nM
HOP-62 NSCLC
  GI50: 1430 nM
  TGI: 3260 nM
HOP-92 NSCLC
  GI50: 2040 nM
  TGI: 8420 nM
HS 578T breast
  GI50: 1970 nM
  TGI: 5060 nM
HT29 colon
  GI50: 1010 nM
  TGI: 2270 nM
IGROV1 ovarian
  GI50: 905 nM
  TGI: 3200 nM
K-562 leukemia
  GI50: 1130 nM
  TGI: 2740 nM
KM12 colon
  GI50: 1390 nM
  TGI: 3030 nM
LOX IMVI melanoma
  GI50: 968 nM
  TGI: 4500 nM
M14 melanoma
  GI50: 1760 nM
  TGI: 3480 nM
MCF7 breast
  GI50: 1280 nM
  TGI: 2680 nM
MDA-MB-231 breast
  GI50: 1500 nM
  TGI: 3530 nM
MDA-MB-435
  GI50: 1500 nM
  TGI: 2930 nM
MOLT-4 leukemia
  GI50: 488 nM
  TGI: 2410 nM
NCI-H226 lung
  GI50: 6090 nM
  TGI: 24600 nM
NCI-H23 lung
  GI50: 1510 nM
  TGI: 3340 nM
NCI-H460 lung
  GI50: 836 nM
  TGI: 2240 nM
NCI-H522 lung
  GI50: 1470 nM
  TGI: 3060 nM
NCI/ADR-RES ovarian
  GI50: 1420 nM
  TGI: 2820 nM
OVCAR-3 ovarian
  GI50: 1520 nM
  TGI: 4190 nM
OVCAR-4 ovarian
  GI50: 1300 nM
  TGI: 3190 nM
OVCAR-5 ovarian
  GI50: 1500 nM
  TGI: 4020 nM
PC-3 prostate
  GI50: 2170 nM
  TGI: 5950 nM
RPMI-8226 leukemia
  GI50: 2340 nM
  TGI: 6240 nM
RXF 393 renal
  GI50: 1390 nM
  TGI: 2800 nM
SF-268 CNS
  GI50: 1170 nM
  TGI: 4370 nM
SF-295 CNS
  GI50: 1130 nM
  TGI: 2500 nM
SF-539 CNS
  GI50: 1650 nM
  TGI: 3080 nM
SK-MEL-2 melanoma
  GI50: 1900 nM
  TGI: 3790 nM
SK-MEL-28 melanoma
  GI50: 1650 nM
  TGI: 3070 nM
SK-MEL-5 melanoma
  GI50: 1780 nM
  TGI: 3200 nM
SK-OV-3 ovarian
  GI50: 5050 nM
  TGI: 18400 nM
SN12C renal
  GI50: 1510 nM
  TGI: 7030 nM
SNB-19 CNS
  GI50: 1600 nM
  TGI: 4320 nM
SNB-75 CNS
  GI50: 1230 nM
  TGI: 7780 nM
SR leukemia
  GI50: 371 nM
  TGI: 2150 nM
SW-620 colon
  GI50: 684 nM
  TGI: 2190 nM
T-47D breast
  GI50: 2160 nM
  TGI: 6390 nM
TK-10 renal
  GI50: 1520 nM
  TGI: 4040 nM
U251 CNS
  GI50: 1560 nM
  TGI: 3030 nM
UACC-257 melanoma
  GI50: 1890 nM
  TGI: 3600 nM
UACC-62 melanoma
  GI50: 2150 nM
  TGI: 4910 nM
UO-31 renal
  GI50: 1090 nM
  TGI: 2730 nM

## Cc1[nH]nc2c1N=C(c1ccccc1F)c1cc(C#N)ccc1N2
786-0 renal
  GI50: 801 nM
  TGI: 7270 nM
A498 renal
  GI50: 146 nM
  TGI: 1080 nM
ACHN renal
  GI50: 326 nM
  TGI: 5370 nM
BT-549 breast
  GI50: 2650 nM
  TGI: 12100 nM
CAKI-1 renal
  GI50: 51 nM
  TGI: 5660 nM
CCRF-CEM leukemia
  GI50: 113 nM
  TGI: > 13600 nM
COLO 205 colon
  GI50: 134 nM
  TGI: 5340 nM
DU-145 prostate
  GI50: 3000 nM
  TGI: 12800 nM
HCC-2998 colon
  GI50: 3580 nM
  TGI: 15900 nM
HCT-116 colon
  GI50: 143 nM
  TGI: 6910 nM
HL-60(TB) leukemia
  GI50: 96.9 nM
  TGI: 8710 nM
HOP-62 NSCLC
  GI50: 899 nM
  TGI: 8850 nM
HOP-92 NSCLC
  GI50: 672 nM
  TGI: 8870 nM
HS 578T breast
  GI50: 122 nM
  TGI: 3830 nM
HT29 colon
  GI50: 118 nM
  TGI: 7410 nM
IGROV1 ovarian
  GI50: 5400 nM
  TGI: 16200 nM
K-562 leukemia
  GI50: 110 nM
  TGI: > 25000 nM
KM12 colon
  GI50: 111 nM
  TGI: 6480 nM
LOX IMVI melanoma
  GI50: 285 nM
  TGI: 16300 nM
MALME-3M melanoma
  GI50: 14700 nM
  TGI: > 25000 nM
MCF7 breast
  GI50: 119 nM
  TGI: > 16800 nM
MDA-MB-231 breast
  GI50: 2590 nM
  TGI: 11700 nM
MOLT-4 leukemia
  GI50: 6250 nM
  TGI: > 25000 nM
NCI-H226 lung
  GI50: 322 nM
  TGI: 4110 nM
NCI-H23 lung
  GI50: 3740 nM
  TGI: 14200 nM
NCI-H460 lung
  GI50: 106 nM
  TGI: 15600 nM
NCI-H522 lung
  GI50: 3720 nM
  TGI: 11100 nM
NCI/ADR-RES ovarian
  GI50: 4720 nM
  TGI: > 25000 nM
OVCAR-3 ovarian
  GI50: 88.7 nM
  TGI: 8310 nM
OVCAR-4 ovarian
  GI50: 3020 nM
  TGI: 8010 nM
OVCAR-5 ovarian
  GI50: 7120 nM
  TGI: 18800 nM
OVCAR-8 ovarian
  GI50: 3380 nM
  TGI: 12300 nM
PC-3 prostate
  GI50: 4930 nM
  TGI: > 25000 nM
RPMI-8226 leukemia
  GI50: 7400 nM
  TGI: 19500 nM
RXF 393 renal
  GI50: 105 nM
  TGI: 1990 nM
SF-268 CNS
  GI50: 316 nM
  TGI: 5800 nM
SF-295 CNS
  GI50: 207 nM
  TGI: 15900 nM
SF-539 CNS
  GI50: 134 nM
  TGI: 4930 nM
SK-MEL-2 melanoma
  GI50: 2390 nM
  TGI: 8810 nM
SK-MEL-28 melanoma
  GI50: 6500 nM
  TGI: > 23500 nM
SK-MEL-5 melanoma
  GI50: 97.1 nM
  TGI: 9390 nM
SK-OV-3 ovarian
  GI50: 889 nM
  TGI: > 17000 nM
SN12C renal
  GI50: 3870 nM
  TGI: 15100 nM
SNB-19 CNS
  GI50: 4160 nM
  TGI: 13900 nM
SNB-75 CNS
  GI50: 36 nM
  TGI: 717 nM
SR leukemia
  GI50: 64.1 nM
  TGI: > 18000 nM
T-47D breast
  GI50: 1360 nM
  TGI: > 15200 nM
TK-10 renal
  GI50: 1910 nM
  TGI: 8730 nM
U251 CNS
  GI50: 215 nM
  TGI: 4640 nM
UACC-257 melanoma
  GI50: 9710 nM
  TGI: > 25000 nM
UACC-62 melanoma
  GI50: 3040 nM
  TGI: 7370 nM
UO-31 renal
  GI50: 435 nM
  TGI: 4010 nM

— PubChem BioAssay (NCI)
